Measurements from ChEMBL document CHEMBL1201862, “PubChem BioAssay data set” (2004).
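Briefly, cells in 96-well plates were exposed to five compound concentrations for 48 h, and endpoints were estimated by linear interpolation. The concentration for 50% growth inhibition is given as GI50.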 Activity calls are given as the source filed them. Rule as the data show it: active = GI50 up to about 1.1 µM and inactive = higher.

Legend:
Assay in all cases: NCI anticancer screen, dose series, 48 h
[1] = system: PC-3
[2] = system: NCI-H23
[3] = system: HOP-92
[4] = system: CCRF-CEM
[5] = system: A498
[6] = system: RXF 393
[7] = system: K562
[8] = system: CAKI-1
[9] = system: ACHN
[10] = system: LOX IMVI
[11] = system: SF-539
[12] = system: SF-268
[13] = system: SK-MEL-5
[14] = system: TK-10
[15] = system: SW-620
[16] = system: SN12C
[17] = system: OVCAR-4
[18] = system: NCI/ADR-RES
[19] = system: HOP-62
[20] = system: RPMI-8226

Compound	GI50 [1]	GI50 [2]	GI50 [3]	GI50 [4]	GI50 [5]	GI50 [6]	GI50 [7]	GI50 [8]	GI50 [9]	GI50 [10]	GI50 [11]	GI50 [12]	GI50 [13]	GI50 [14]	GI50 [15]	GI50 [16]	GI50 [17]	GI50 [18]	GI50 [19]	GI50 [20]
C=C1C2CC3CCC2C(OC(=O)c2ccccc2C(=O)O)C13 (stereo not given)	> 100 µM (inactive)	> 100 µM (inactive)	> 100 µM (inactive)	> 100 µM (inactive)	> 100 µM (inactive)	> 100 µM (inactive)	> 100 µM (inactive)	> 100 µM (inactive)	> 100 µM (inactive)	> 100 µM (inactive)	> 100 µM (inactive)	> 100 µM (inactive)	> 100 µM (inactive)	> 100 µM (inactive)	> 100 µM (inactive)	> 100 µM (inactive)	> 100 µM (inactive)	> 100 µM (inactive)	> 100 µM (inactive)	
CCOC(=O)c1sc2nc(SC)nc3c2c1N=CN3c1ccccc1Cl	> 100 µM (inactive)	92.3 µM (inactive)	22.6 µM (inactive)	65.3 µM (inactive)	10.1 µM (inactive)	18.1 µM (inactive)	72.3 µM (inactive)	26.2 µM (inactive)	19.4 µM (inactive)	> 100 µM (inactive)		24.1 µM (inactive)	52 µM (inactive)	> 100 µM (inactive)	> 100 µM (inactive)	> 100 µM (inactive)	17.2 µM (inactive)	> 100 µM (inactive)	6.98 µM (inactive)	> 100 µM (inactive)
C[C@@H](NC(=O)[C@@H]1C[C@]1(C)COC(=O)c1cc([N+](=O)[O-])cc([N+](=O)[O-])c1)c1cccc2ccccc12	> 100 µM (inactive)	> 100 µM (inactive)	80.2 µM (inactive)	> 100 µM (inactive)	> 100 µM (inactive)	12.6 µM (inactive)	> 100 µM (inactive)	> 100 µM (inactive)	33.7 µM (inactive)	60.1 µM (inactive)		> 100 µM (inactive)	> 100 µM (inactive)	> 100 µM (inactive)	> 100 µM (inactive)	> 100 µM (inactive)	> 100 µM (inactive)	> 100 µM (inactive)	53 µM (inactive)	> 100 µM (inactive)
COC(C[C@H]1CCCC[C@]1(O)/C(=C\CO[Si](C(C)C)(C(C)C)C(C)C)Sc1ccccc1)OC	35.6 µM (inactive)	25.8 µM (inactive)	20.5 µM (inactive)	27 µM (inactive)	> 100 µM (inactive)	16.1 µM (inactive)	31.3 µM (inactive)	32.4 µM (inactive)	> 100 µM (inactive)	18 µM (inactive)		28.3 µM (inactive)	30.3 µM (inactive)	> 100 µM (inactive)		39.5 µM (inactive)	39.2 µM (inactive)	87.3 µM (inactive)	50 µM (inactive)	15.5 µM (inactive)
O=c1c2ccccc2sc2cccc(NCCCN3CCN(CCCNc4cccc5sc6ccccc6c(=O)c45)CC3)c12	85.1 µM (inactive)	> 100 µM (inactive)		> 100 µM (inactive)	> 100 µM (inactive)	> 100 µM (inactive)	> 100 µM (inactive)	> 100 µM (inactive)	> 100 µM (inactive)	> 100 µM (inactive)	> 100 µM (inactive)	> 100 µM (inactive)	> 100 µM (inactive)	> 100 µM (inactive)	> 100 µM (inactive)	> 100 µM (inactive)	> 100 µM (inactive)	> 100 µM (inactive)	> 100 µM (inactive)	> 100 µM (inactive)
O=C(O)CSC(NC(=O)C(C(F)(F)F)C(F)(F)F)(C(F)(F)F)C(F)(F)F	> 100 µM (inactive)	> 100 µM (inactive)		> 100 µM (inactive)	71 µM (inactive)	28.4 µM (inactive)	> 100 µM (inactive)	1.38 µM (inactive)	> 100 µM (inactive)	> 100 µM (inactive)	> 100 µM (inactive)	> 100 µM (inactive)	> 100 µM (inactive)	> 100 µM (inactive)	> 100 µM (inactive)	> 100 µM (inactive)		> 100 µM (inactive)		> 100 µM (inactive)
CC(=O)OC1CCC2(C)C(CCC3C4CC=C(C5(C)OCCO5)C4(C)CCC32)C1 (stereo not given)	17.3 µM (inactive)	25.6 µM (inactive)		19.5 µM (inactive)	24.9 µM (inactive)	17.7 µM (inactive)	25.1 µM (inactive)	28.3 µM (inactive)	25.1 µM (inactive)	16.9 µM (inactive)	20.5 µM (inactive)	27.8 µM (inactive)	15.6 µM (inactive)	22.5 µM (inactive)	21 µM (inactive)	19.6 µM (inactive)	19.7 µM (inactive)	20.6 µM (inactive)	19.1 µM (inactive)	14.4 µM (inactive)
CC(=O)O[C@H]1C(=O)[C@@]2(C)[C@H]([C@H](OC(=O)c3ccccc3)[C@]3(O)C[C@H](OC(=O)[C@H](O)[C@@H](NC(=O)c4ccccc4)c4cccc(N(C)C)c4)C(C)=C1C3(C)C)[C@]1(OC(C)=O)CO[C@@H]1C[C@@H]2O	0.209 µM (active)	0.0755 µM (active)	0.555 µM (active)	0.0215 µM (active)	0.579 µM (active)	0.221 µM (active)	0.0324 µM (active)	> 48.3 µM (inactive)	0.7 µM (active)	0.036 µM (active)	0.0668 µM (active)	0.337 µM (active)	0.0417 µM (active)	1.41 µM (inactive)	0.0409 µM (active)	0.041 µM (active)		> 28.2 µM (inactive)	0.256 µM (active)	0.00968 µM (active)
O=C1Nc2ccc(Br)cc2/C1=N/c1ccc(Cl)cc1	25.3 µM (inactive)	30.2 µM (inactive)	37.3 µM (inactive)	11.6 µM (inactive)	> 100 µM (inactive)	18.5 µM (inactive)	0.586 µM (active)	7.1 µM (inactive)	13.4 µM (inactive)	0.521 µM (active)	3.58 µM (inactive)	14.6 µM (inactive)	4.15 µM (inactive)	21.8 µM (inactive)	6.56 µM (inactive)	13 µM (inactive)		12.6 µM (inactive)	21.7 µM (inactive)	4.39 µM (inactive)
Cn1c([C@H](C#N)c2ncccc2[N+](=O)[O-])nc2ccccc21	86.1 µM (inactive)	59 µM (inactive)	89.1 µM (inactive)	0.632 µM (active)	> 100 µM (inactive)	19.5 µM (inactive)	> 100 µM (inactive)	> 100 µM (inactive)	> 100 µM (inactive)	> 100 µM (inactive)	31.1 µM (inactive)	36 µM (inactive)		> 100 µM (inactive)	> 100 µM (inactive)			78.2 µM (inactive)	24.5 µM (inactive)	> 100 µM (inactive)
